# What was measured:
# [1] = PK values in HS-SY-II xenograft model (plasma concentration, LC/MS/MS); format: in vivo, mice; conditions: oral twice daily for 7 days; 5 minutes before and 3 hours after the last dose
# Protocol: HS-SY-II cells were harvested during mid-log phase growth, and resuspended in Hank balanced salt solution with 50% Matrigel (BD Biosciences). Balb/C-nu mice (Charles River Laboratories Japan) received 1×10^7 cells (0.1 mL cell suspension) subcutaneously in the right flank. Mice carrying tumors of approximately 200 mm^3 (31 days after injection) were sorted into treatment groups with similar mean tumor volumes. Compound A or vehicle (0.5% MC+0.1% Tween-80 in water) was administered at the indicated doses on twice a day for 7 days by oral gavage. Each dose was delivered in a volume of 0.2 mL/20 g mouse (10 mL/kg), and adjusted for the last recorded weight of individual animals. Peripheral blood samples were collected at approximately 5 minutes before and 3 hours after the last dose from Compound A-treated mice. After obtaining plasma samples by centrifugation, the analysis for plasma concentrations of Compound A was conducted by the liquid chromatography-tandem mass spectrometry (LC/MS/MS) method. The UPLC system (Acquity, Waters) equipped with a mass spectrometer (Quattro premier, MICROMASS) was used for quantification of Compound A. The concentrations are plotted (n=5) in FIG. 7A. Each bar represents a mean of plasma concentration in each group.
# [2] = system: H3K27me3 in HS-SY-II xenograft; experiment: H3K27me3 ELISA of HS-SY-II xenograft tumors harvested on Day 28; format: in vivo, athymic nude mice; conditions: Day 28, 3 h after the last dose; second study
# Protocol: FIGS. 10A to 10C show mean in vivo tumor volumes for athymic nude mice bearing HS-SY-II xenografts. In a first study, mice were dosed with either vehicle (oral for 28 days or iv on Day 1 and Day 22), Compound A (oral: 125 mg/kg, 250 mg/kg, or 500 mg/kg for 28 days), or Doxorubicin (iv: 10 mg/kg, Day 1 and Day 22); tumor volumes were measured twice a week (FIGS. 10A and 10B). In a second study, mice were dosed with either vehicle (oral for 28 days), Compound A (oral: 250 mg/kg or 500 mg/kg for 28 days), Doxorubicin (iv: 10 mg/kg on Day 1 and Day 22), or a combination of Doxorubicin (iv: 10 mg/kg on Day 1 and Day 22) and Compound A (oral: 250 mg/kg for 28 days) (FIG. 10C). Tumors from animals of the second study were harvested on Day 28 (3 h after the last dose) and subjected to H3K27me3 analysis by ELISA (FIG. 10D) or IHC for the proliferation marker Ki67 (FIG. 10E).
# For FIG. 10D, tumors were snap-frozen in liquid nitrogen. […] Histones were quantified using the BCA protein assay (23225, Pierce). […] Subsequently, the developed colors in the wells were measured using a plate spectrophotometer (SpectraMax 250, Molecular Devices) at 450 nm (reference wavelength 650 nm). The H3K27me3 levels were adjusted to total histone H3, and expressed as fold changes to vehicle control. […] Histones were extracted and quantified, and the levels of H3K27me3 were analyzed as described above. […]
# [3] = system: HS-SY-II xenograft; experiment: Gene expression changes in vivo in HS-SY-II xenograft model (RT-PCR); parameters: species or system mice; conditions: 500 mg/kg oral twice daily for 7 days; 3 hours after last dose
# Protocol: (§1) Tumor samples were collected at approximately 3 hours after the last dose from mice used in analysis for PK values and PD alterations. The tumor samples were stored using RNAlater (AM7020, Life technologies). Total RNA isolation and the reverse transcription were performed by RNeasy Mini Kit (74104, Qiagen) and High capacity cDNA Reverse Transcription kit (4368814, Life technologies) according to the manufacturer's instruction. The cDNA samples were used for real time-PCR as described above.
# as §1, with “above. […] Additionally or alternatively, total RNAs were isolated from frozen tumor samples. The TruSeq' RNA Sample Prep Kit (Illumina) was used to build cDNA library for paired-end sequencing on the Illumina HiSeq (details described in Illumina TruSeq RNA Sample Preparation Guide). […] Paired-end reads from ˜50M clusters per sample were generated using TruSeq SBS kit on the Illumina HiSeq.” for “above.”
smiles,measurement,setting,value
CCN(c1cc(-c2ccc(CN3CCOCC3)cc2)cc(C(=O)NCc2c(C)cc(C)[nH]c2=O)c1C)C1CCOCC1 [Compound A],plasma concentrations,[1],Dose dependent exposure
same,H3K27me3 levels in tumors (fold change to vehicle control),[2],significantly reduced
same,CDKN2A expression in tumor,[3],significantly upregulated
